Measurements from the supplement of paper PMC10307832.

Assays:
Experiment in all cases: relative viability (nuclei count vs DMSO), 5 days (fraction); higher = more cells survive
Fedratinib + Tozasertib = compound: Cc1cnc(Nc2ccc(OCCN3CCCC3)cc2)nc1Nc1cccc(S(=O)(=O)NC(C)(C)C)c1 [Fedratinib] + Cc1cc(Nc2cc(N3CCN(C)CC3)nc(Sc3ccc(NC(=O)C4CC4)cc3)n2)n[nH]1 [Tozasertib] (partner 0.1 µM)
Method in brief: (§1)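 A single step with final 0.05% Triton X-100, 1% formaldehyde and 1 ug/ml Hoechst fixed the cells and stained nuclei 5 days after treatment. Lung cancer cell lines in 1536-well plates had been treated by pin tool the day after seeding with one drug alone or a fixed anchor-drug dose plus five library-drug doses (not always all listed) in √10 steps, and nuclei were counted on 4× images. Relative viability is the ratio of nuclei in treated wells to nuclei in vehicle wells, taken as the median of duplicate plates.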

Fedratinib + Alpelisib = compound: Cc1cnc(Nc2ccc(OCCN3CCCC3)cc2)nc1Nc1cccc(S(=O)(=O)NC(C)(C)C)c1 [Fedratinib] + Cc1nc(NC(=O)N2CCC[C@H]2C(N)=O)sc1-c1ccnc(C(C)(C)C(F)(F)F)c1 [Alpelisib] (partner 2 µM)
Method in brief: as §1

Fedratinib + Vorinostat = compound: Cc1cnc(Nc2ccc(OCCN3CCCC3)cc2)nc1Nc1cccc(S(=O)(=O)NC(C)(C)C)c1 [Fedratinib] + O=C(CCCCCCC(=O)Nc1ccccc1)NO [Vorinostat] (partner 1 µM)
Method in brief: as §1

GW-2580 + Phenformin = compound: COC1=CC=C(C=C1)COC2=C(C=C(C=C2)CC3=CN=C(N=C3N)N)OC [GW-2580] + N=C(N)NC(=N)NCCc1ccccc1 [Phenformin] (partner 250 µM)
Method in brief: as §1

Fedratinib + Pictilisib = compound: Cc1cnc(Nc2ccc(OCCN3CCCC3)cc2)nc1Nc1cccc(S(=O)(=O)NC(C)(C)C)c1 [Fedratinib] + CS(=O)(=O)N1CCN(Cc2cc3nc(-c4cccc5[nH]ncc45)nc(N4CCOCC4)c3s2)CC1 [Pictilisib] (partner 1 µM)
Method in brief: as §1

Fedratinib + Palbociclib = compound: Cc1cnc(Nc2ccc(OCCN3CCCC3)cc2)nc1Nc1cccc(S(=O)(=O)NC(C)(C)C)c1 [Fedratinib] + CC(=O)c1c(C)c2cnc(Nc3ccc(N4CCNCC4)cn3)nc2n(C2CCCC2)c1=O [Palbociclib] (partner 0.5 µM)
Method in brief: as §1

| Cell Line | relative viability (Fedratinib + Tozasertib; first compound 0.1 µM) | relative viability (Fedratinib + Tozasertib; first compound 0.3162 µM) | relative viability (Fedratinib + Tozasertib; first compound 1 µM) | relative viability (Fedratinib + Alpelisib; first compound 0.1 µM) | relative viability (Fedratinib + Alpelisib; first compound 0.3162 µM) | relative viability (Fedratinib + Alpelisib; first compound 1 µM) | relative viability (Fedratinib + Vorinostat; first compound 0.1 µM) | relative viability (Fedratinib + Vorinostat; first compound 0.3162 µM) | relative viability (Fedratinib + Vorinostat; first compound 1 µM) | relative viability (GW-2580 + Phenformin; first compound 0.08 µM) | relative viability (GW-2580 + Phenformin; first compound 0.8 µM) | relative viability (GW-2580 + Phenformin; first compound 2.53 µM) | relative viability (GW-2580 + Phenformin; first compound 8 µM) | relative viability (Fedratinib + Pictilisib; first compound 0.1 µM) | relative viability (Fedratinib + Pictilisib; first compound 0.3162 µM) | relative viability (Fedratinib + Pictilisib; first compound 1 µM) | relative viability (Fedratinib + Palbociclib; first compound 0.1 µM) | relative viability (Fedratinib + Palbociclib; first compound 0.3162 µM) | relative viability (Fedratinib + Palbociclib; first compound 1 µM) |
| --- | --- | --- | --- | --- | --- | --- | --- | --- | --- | --- | --- | --- | --- | --- | --- | --- | --- | --- | --- |
| NCI-H1755 | 0.53 | 0.524 | 0.523 | 0.969 | 0.886 | 0.82 | 0.761 | 0.786 | 0.705 | 0.667 | 0.631 | 0.326 | 0.594 | 0.385 | 0.458 | 0.399 | 0.438 | 0.462 | 0.413 |
| NCI-H1793 | 0.263 | 0.353 | 0.288 | 0.746 | 0.683 | 0.627 | 0.749 | 0.621 | 0.515 | 0.4 | 0.259 | 0.314 | 0.286 | 0.34 | 0.305 | 0.306 | 0.316 | 0.319 | 0.313 |
| NCI-H1915 | 0.329 | 0.417 | 0.328 | 1.03 | 1.04 | 0.943 | 0.539 | 0.507 | 0.459 | 0.392 | 0.368 | 0.362 | 0.38 | 0.927 | 0.9 | 0.405 | 0.505 | 0.498 | 0.422 |
| NCI-H1944 | 0.25 | 0.225 | 0.209 | 0.804 | 0.945 | 0.716 | 0.668 | 0.571 | 0.516 | 0.198 | 0.201 | 0.169 | 0.189 | 0.333 | 0.344 | 0.302 | 0.305 | 0.358 | 0.318 |
| NCI-H1975 | 0.44 | 0.734 | 0.389 | 0.613 | 0.692 | 0.467 | 0.744 | 0.702 | 0.603 | 0.44 | 0.43 | 0.414 | 0.418 | 0.301 | 0.315 | 0.15 | 0.644 | 0.304 | 0.413 |
| NCI-H1993 | 0.58 | 0.575 | 0.596 | 0.612 | 0.755 | 0.65 | 0.819 | 0.872 | 0.864 | 0.573 | 0.461 | 0.486 | 0.518 | 0.779 | 0.872 | 0.771 | 0.654 | 0.63 | 0.906 |
| NCI-H2009 | 0.547 | 0.792 | 0.652 | 1.21 | 1.2 | 1.1 | 0.639 | 0.696 | 0.695 | 0.509 | 0.45 | 0.409 | 0.423 | 0.699 | 0.919 | 0.143 | 0.185 | 0.254 | 0.161 |
| NCI-H2023 | 0.226 | 0.289 | 0.281 | 0.578 | 0.629 | 0.56 | 0.826 | 0.626 | 0.547 | 0.466 | 0.423 | 0.336 | 0.382 | 0.245 | 0.246 | 0.0814 | 0.391 | 0.356 | 0.248 |
